Experimental data reported in patent US20110098177A1, “METHODS AND COMPOSITIONS OF PLANT MICRONUTRIENTS” (NOVUS INTERNATIONAL INC., priority 2006, published 2011).
Like-named read-outs stand apart in the source and are kept apart here.

What was measured:
Format in all cases: in vivo
Aristotle bell pepper = tested on: Aristotle bell pepper
Protocol: (§1) The following experiments were performed in a green house during the fall of 2007 at GCREC, Balm, University of Florida. Fifteen products, at 3 different application rates were examined. The plot size was 2-gallon pots. Crop set-up, procedures and variables were as follows.
(§2) Transplants of ‘Florida-47’ tomato and ‘Aristotle’ bell pepper plants in the 4-true leaf stage (about 6 inches tall) were planted in 2-gal pots on Aug. 27, 2007. Pots were filled with a commercially available planting medium. This medium was selected based on the mineral composition of the products to be applied without providing significant nutritional inputs to the crops. Irrigation was provided with drip lines delivering between 0.50 and 0.33 gal/day/pot for tomato and bell pepper, respectively, and the crops were irrigated three times per day. No foliar pesticides were necessary.
(§3) There were four control treatments corresponding to each target micronutrient in which non-Fe, non-Mn, non-Zn or non-Cu pots received all other essential nutrients under non-limiting conditions.
(§4) Treatments were applied at three rates (high, medium and low) obtained from the estimated concentration of Zn, Fe, Cu, and Mn foliarly-applied in tomato and bell pepper in field situations (Table 1). Products were weighed and dissolved in 200 ml of deionized water with a non-ionic surfactant and applied to the newly-matured open leaves of each crop at 3 and 7 weeks after transplant (WAT). Treated pots were isolated during application to avoid cross-contamination of other treatments.
(§5) Medium nutrient concentration was determined 1 week before treatment. The mineral composition of the medium was 26.8 ppm NH4—N, 49 ppm NO3—N, 15.8 ppm P, 91.2 ppm K, 82.3 ppm Ca, 58.2 ppm Mg, 23.9 ppm Na, 125.6 ppm S, 1.33 ppm Fe, 0.39 ppm Mn, 0.35 ppm Zn, 0.05 pp, Cu, 0.04 ppm B, 0 ppm Mo, 0.73 ppm Al, and 12.1 ppm Si. The pH of the medium was 5.36 and the electric conductivity was 1.38 mS/cm. The foliar tissue analysis was performed at 6 WAT and the concentration of N, P, K, Mg, Ca, S, B, Zn, Mn, Fe, and Cu was determined by a commercial laboratory. Plant toxicity was determined at 4 WAT by using a 0-10 visual scale, where 0=no visible damage and 10=total plant death. Marketable fruit weight was collected 2 times in bell pepper and 4 times in tomato following USDA standards.
(§6) Data were analyzed using a general linear model, and means were separated using orthogonal contrasts at the 5% significance level.

Florida-47 tomato = tested on: Florida-47 tomato
Protocol: as §1, §2, §3, §4, §5, §6

Tygress tomato plants [1] = assay: Foliar nutrient concentration at 7 WAT, greenhouse tomato spring 2009 (Examples 13-15)
Protocol: (§7) The following experiments were performed in a green house during the spring of 2009 at GCREC, Balm, University of Florida. Crop set-up, procedures and variables were as follows.
(§8) Transplants of ‘Tygress’ tomato plants were planted in 2-gallon pots filled with commercial planting medium with nutrient concentration of Fe, Zn, Mn, Cu being negligible and insufficient for crop growth. Irrigation and non-micronutrient fertilizer were provided daily through microsprinklers at recommended rates for tomato production in Florida. No pesticides were used. Treatments were as described in Tables 42, 43, and 44 below. BIOX-Cu was compared to Cu-sulfate, BIOX-EDC, and BIOX-O; and BIOX-Fe was compared to Fe-sulfate and BIOX-EDF. BIOX-MEZ is Ca-HMTBA.
(§9) Treatments were applied at 6 WAT (weeks after transplanting) using a water volume of 200 mL/plant. Deionized water was used for foliar applications. A non-ionic surfactant was added. Other nutrients were applied as appropriate under non-limiting conditions.
Foliar tissue nutrient analysis was performed at 3 WAT (i.e., 3 weeks before treatment) and 7 WAT (i.e., 1 weeks after treatment) on the non-applied newest leaves. The concentrations of N, P, K, Mg, Ca, B, Zn, Mn, Fe, and Cu in the foliar tissue were determined by a commercial laboratory. There were no significant differences between the foliar nutrient concentrations of any of the treatment groups prior to treatment.
(§10) Experimental design was a randomized complete block design with 6 replications. Data were analyzed using a general linear model, and means were separated using an LSD test at the 5% significance level.

Tygress tomato plants [2] = assay: Yields of tomato fruits, greenhouse spring 2009 (Examples 13-15)
Protocol: as §7, §8, §9
Marketable fruit were collected three times during the growing season, starting at 10 WAT (4 weeks after the initial treatment). Tomato fruit was graded as marketable and non-marketable. Marketable fruit was sized as extra-large, large, and medium. Non-marketable fruit were harvested and number and weight recorded but not sized.
as §10

Tygress tomato plants [3] = details: for Toxicity (0-10): 0=no injury, 10=plant death
Protocol: as §7, §8, §9
Toxicity of the treatments was assessed by rating foliar tissue using a visual scale, where 0=no injury and 10=plant death.
as §10

Tygress tomato plants [4] = assay: Foliar nutrient concentration at 6 WAT, open-field tomato (Examples 7-10); details: in vivo
Protocol: The following experiments were performed in open-field plots during the spring of 2008 at GCREC, Balm, University of Florida. Four products delivering Zn (BIOX-Z), Mn (BIOX-M), Cu (BIOX-Cu), and Fe (BIOX-Fe) were compared to other micronutrient supplement formulations in tomato and bell pepper plants.
The plot sizes for the tomato plants were 30-ft plots (15 plants per plot) and 15-ft plots were used for the bell pepper plants (30 plants per plot). Crop set-up, procedures and variables were as follows.
Transplants of ‘Tygress’ tomato plants and ‘Patriot’ bell pepper plants in the 4-true leaf stage (about 6 inches tall) were planted in raised beds in open-field plots. The cross-section of each raised bed was 28 inches wide at the top, 32 inches wide at the base, and 8 inches tall. Irrigation and non-micronutrient fertilizer were provided daily through two drip lines per bed (0.45 gal/100 ft bed/min) at recommended rates for tomato and bell pepper production in Florida. […] The height of the plants for each of the treatment groups was measured at 3 weeks after transplantation (WAT), just prior to treatment with the experimental foliar fertilizers.
All foliar fertilizers except BIOX-CM were applied to the various treatment groups at 3 weeks after transplantation (WAT) and again at 5 WAT. The BIOX-CM treatment was applied at 4 and 5 WAT. The working water volume was 60 gal/acre and a non-ionic surfactant (Ad-Spray 80) was added in the amount of 2 pints/100 gal water. All plots were sprayed with sprayers pressurized at 25 psi and the canopies of both crops were covered with the micronutrient solutions. Treated plots were isolated during foliar fertilizer application to avoid the cross-contamination of other treatments on adjoining plots.
Leaf samples were collected from the most recent mature leaves from each plant at 6 WAT (2 weeks after initial treatment). Foliar tissue analysis was performed by a commercial laboratory to determine the concentration of N, P, K, Mg, Ca, B, Zn, Mn, Fe, and Cu. Tomato marketable fruit weights were collected at 10 and 12 WAT, and the fruits were graded according to USDA standards. Pepper marketable fruit weights were determined beginning at 5 WAT over 5 weekly harvests. Fruit mineral analysis (N, P, K, Mg, Ca, B, Zn, Mn, Fe, and Cu) was performed on samples from the tomato harvest.
The experimental design was a randomized complete block design with 5 replications for each treatment. All comparison data were analyzed using a general linear model and the means of each treatment were separated with a Fisher's protected LSD test at the 5% significance level.

[5] = High rate, 1 week after treatment, scale 0 = no visible injury, 10 = plant death
[6] = Low rate, 1 week after treatment, scale 0 = no visible injury, 10 = plant death
[7] = Medium rate, 1 week after treatment, scale 0 = no visible injury, 10 = plant death
[8] = tomato and bell pepper plants stated together, Fall 2007 greenhouse
[9] = BIOX-Cu at 0.46 and 0.55 lb/acre, Cu-sulfate at 0.8 lb/acre, BIOX-EDC at 0.4 lb/acre

EDTA chelated iron [BIOX-EDI]
Pepper toxicity (Aristotle bell pepper; [5]): 9 | Pepper toxicity (Aristotle bell pepper; [6]): 9 | Pepper toxicity (Aristotle bell pepper; [7]): 9 | Tomato toxicity (Florida-47 tomato; [5]): 8 | Tomato toxicity (Florida-47 tomato; [6]): 8 | Tomato toxicity (Florida-47 tomato; [7]): 8 | Foliar injury (in words) (Florida-47 tomato; [8]): from light leaf speckling to severe necrosis and plant decay

O=S(=O)([O-])[O-].[Fe+2] [Fe sulfate]
Foliar Fe concentration (Tygress tomato plants [1]; Fe 2.0 lb/acre, tomato leaves 1 week after treatment): 888 ppm | Marketable yield (Tygress tomato plants [2]; Fe 2.0 lb/acre): 1100 g/plant | Toxicity (0-10) (Tygress tomato plants [3]; Fe 2.0 lb/acre): 5

O=S(=O)([O-])[O-].[Fe+2] [BIOX-INI, ferrous sulfate]
Pepper toxicity (Aristotle bell pepper; in vivo): 7 | Foliar injury (in words) (Florida-47 tomato; in vivo): from light leaf speckling to severe necrosis and plant decay | Tomato toxicity (Florida-47 tomato; in vivo): 7 | Toxicity scale scores (Florida-47 tomato; in vivo): 7-9 | Foliar Fe concentration in tomato leaves, statement (Tygress tomato plants [1]; 7 WAT (1 week after treatment)): highest Fe concentrations | Marketable tomato yields compared to non-treated control, statement (Tygress tomato plants [2]; BIOX-Fe at all levels, Fe-sulfate at 2.0 lb/acre, BIOX-EDF at 0.3 lb/acre): decreased marketable yields relative to the non-treated control | Toxicity relative to the non-treated control, statement (Tygress tomato plants [3]; all levels of BIOX-Fe, Fe-sulfate at 2.0 lb/acre, BIOX-EDF at 0.3 lb/acre): increased toxicity

NCC(=O)[O-].NCC(=O)[O-].[Cu+2] [BIOX-GC, copper glycinate]
Pepper toxicity (Aristotle bell pepper; in vivo): 7 | Foliar injury (in words) (Florida-47 tomato; in vivo): from light leaf speckling to severe necrosis and plant decay | Tomato toxicity (Florida-47 tomato; in vivo): 7 | Toxicity scale score (Florida-47 tomato; in vivo): 7 | Foliar Zn concentration of tomato plants, statement (Tygress tomato plants [4]): slightly higher foliar Zn concentration

EDTA chelated copper [BIOX-EDC]
Pepper toxicity (Aristotle bell pepper; [5]): 8 | Pepper toxicity (Aristotle bell pepper; [6]): 8 | Pepper toxicity (Aristotle bell pepper; [7]): 8 | Tomato toxicity (Florida-47 tomato; [5]): 8 | Tomato toxicity (Florida-47 tomato; [6]): 8 | Tomato toxicity (Florida-47 tomato; [7]): 8 | Toxicity scale score (Florida-47 tomato; comparable ranges of copper concentrations (0.004% to 0.061% by weight), scale 0-10, both crops): 8 | Foliar injury (in words) (Florida-47 tomato; [8]): from light leaf speckling to severe necrosis and plant decay | Copper concentrations in tomato leaves, statement (Tygress tomato plants [1]; 7 WAT (1 week after treatment)): highest leaf copper concentrations | Foliar Cu concentration (Tygress tomato plants [1]; Cu 0.4 lb/acre, tomato leaves 1 week after treatment): 678 ppm | Marketable tomato yields compared to non-treated control, statement (Tygress tomato plants [2]; [9]): did not alter marketable yields relative to the non-treated control | Marketable yield (Tygress tomato plants [2]; Cu 0.4 lb/acre): 1550 b g/plant | Toxicity compared to non-treated control plants, statement (Tygress tomato plants [3]; [9]): increased levels of toxicity | Toxicity (0-10) (Tygress tomato plants [3]; Cu 0.4 lb/acre): 6

manganese glycinate [BIOX-GM]
Pepper toxicity (Aristotle bell pepper; [5]): 7 | Pepper toxicity (Aristotle bell pepper; [6]): 7 | Pepper toxicity (Aristotle bell pepper; [7]): 7 | Tomato toxicity (Florida-47 tomato; [5]): 7 | Tomato toxicity (Florida-47 tomato; [6]): 7 | Tomato toxicity (Florida-47 tomato; [7]): 7 | Toxicity scale score (Florida-47 tomato; similar manganese concentrations (0.015% to 0.124% by weight), scale 0-10, both crops): 7 | Foliar injury (in words) (Florida-47 tomato; [8]): from light leaf speckling to severe necrosis and plant decay

O=S(=O)([O-])[O-].[Cu+2] [Cu sulfate]
Foliar Cu concentration (Tygress tomato plants [1]; Cu 0.8 lb/acre, tomato leaves 1 week after treatment): 986 ppm | Marketable yield (Tygress tomato plants [2]; Cu 0.8 lb/acre): 1200 b g/plant | Toxicity (0-10) (Tygress tomato plants [3]; Cu 0.8 lb/acre): 6
